Assay results published in the supplement of paper PMC10307832.

Legend:
Test in all cases: relative viability (nuclei count vs DMSO), 5 days (fraction); higher = more cells survive
XMD13-2 + Dasatinib = compound: C1CC1C(=O)NC2=NNC3=C2C=CC(=C3)C4=CC(=CC=C4)C(=O)NC5CC5 [XMD13-2] + Cc1nc(Nc2ncc(C(=O)Nc3c(C)cccc3Cl)s2)cc(N2CCN(CCO)CC2)n1 [Dasatinib] (partner 0.075 µM)
In short: (§1)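 Cells from lung cancer lines were seeded into 1536-well plates and, one day later, dosed by pin tool. Treatments were either a single drug or a fixed dose of an anchor drug with five library-drug doses (not always all listed) in √10 steps. After 5 days, nuclei were stained in a one-step fixation (final 0.05% Triton X-100, 1% formaldehyde, 1 ug/ml Hoechst) and counted on 4× images, and relative viability is the treated-to-vehicle nuclei ratio, as the median of duplicate plates.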

Dasatinib + Luminespib = compound: Cc1nc(Nc2ncc(C(=O)Nc3c(C)cccc3Cl)s2)cc(N2CCN(CCO)CC2)n1 [Dasatinib] + CCNC(=O)c1noc(-c2cc(C(C)C)c(O)cc2O)c1-c1ccc(CN2CCOCC2)cc1 [Luminespib] (partner 0.01 µM)
In short: as §1

Dasatinib + Decitabine = compound: Cc1nc(Nc2ncc(C(=O)Nc3c(C)cccc3Cl)s2)cc(N2CCN(CCO)CC2)n1 [Dasatinib] + Nc1ncn([C@H]2C[C@H](O)[C@@H](CO)O2)c(=O)n1 [Decitabine] (partner 2 µM)
In short: as §1

ALW-II-49-7 + Alpelisib = compound: Cc1ccc(C(=O)Nc2cccc(C(F)(F)F)c2)cc1Nc1cncc(C(N)=O)c1 [ALW-II-49-7] + Cc1nc(NC(=O)N2CCC[C@H]2C(N)=O)sc1-c1ccnc(C(C)(C)C(F)(F)F)c1 [Alpelisib] (partner 2 µM)
In short: as §1

| Cell Line | relative viability (XMD13-2 + Dasatinib; first compound 0.05 µM) | relative viability (XMD13-2 + Dasatinib; first compound 0.1581 µM) | relative viability (XMD13-2 + Dasatinib; first compound 0.5 µM) | relative viability (XMD13-2 + Dasatinib; first compound 1.581 µM) | relative viability (XMD13-2 + Dasatinib; first compound 5 µM) | relative viability (Dasatinib + Luminespib; first compound 0.005 µM) | relative viability (Dasatinib + Luminespib; first compound 0.01581 µM) | relative viability (Dasatinib + Luminespib; first compound 0.05 µM) | relative viability (Dasatinib + Luminespib; first compound 0.1581 µM) | relative viability (Dasatinib + Luminespib; first compound 0.5 µM) | relative viability (Dasatinib + Decitabine; first compound 0.005 µM) | relative viability (Dasatinib + Decitabine; first compound 0.01581 µM) | relative viability (Dasatinib + Decitabine; first compound 0.05 µM) | relative viability (Dasatinib + Decitabine; first compound 0.1581 µM) | relative viability (Dasatinib + Decitabine; first compound 0.5 µM) | relative viability (ALW-II-49-7 + Alpelisib; first compound 0.08 µM) | relative viability (ALW-II-49-7 + Alpelisib; first compound 0.253 µM) | relative viability (ALW-II-49-7 + Alpelisib; first compound 0.8 µM) | relative viability (ALW-II-49-7 + Alpelisib; first compound 2.53 µM) | relative viability (ALW-II-49-7 + Alpelisib; first compound 8 µM) |
| --- | --- | --- | --- | --- | --- | --- | --- | --- | --- | --- | --- | --- | --- | --- | --- | --- | --- | --- | --- | --- |
| NCI-H2342 | 0.334 | 0.357 | 0.334 | 0.313 | 0.349 | 0.769 | 0.548 | 0.439 | 0.437 | 0.281 | 0.685 | 0.598 | 0.632 | 0.51 | 0.321 | – | – | – | – | – |
| SW 1573 | 0.593 | 0.458 | 0.514 | 0.454 | 0.397 | 0.211 | 0.216 | 0.272 | 0.139 | 0.154 | 0.431 | 0.428 | 0.381 | 0.288 | 0.405 | 0.911 | 0.684 | 0.914 | 0.947 | 0.665 |
| NCI-H1993 | 0.601 | 0.44 | 0.526 | 0.519 | 0.573 | 0.883 | 0.598 | 0.971 | 0.432 | 0.543 | 0.503 | 0.477 | 0.67 | 0.456 | 0.407 | 0.691 | 0.644 | 0.671 | 0.72 | 0.688 |
| NCI-H661 | 0.973 | 0.96 | 0.811 | 0.737 | 0.523 | 0.99 | 1.02 | 1 | 0.844 | 0.657 | 0.566 | 0.528 | 0.518 | 0.394 | 0.404 | 0.665 | 0.691 | 0.645 | – | 0.522 |
| NCI-H520 | 0.213 | 0.261 | 0.208 | 0.231 | 0.182 | 0.184 | 0.209 | 0.221 | 0.194 | 0.197 | 0.524 | 0.38 | 0.266 | 0.177 | 0.175 | 0.799 | 0.865 | – | 0.964 | 0.954 |
| ChaGo-K-1 | 0.651 | 0.533 | 0.604 | 0.602 | 0.517 | 0.555 | 0.543 | 0.591 | 0.486 | 0.366 | 0.545 | 0.5 | 0.543 | 0.49 | 0.416 | – | – | – | – | – |
| NCI-H2085 | 0.265 | 0.246 | 0.232 | 0.235 | 0.243 | 0.411 | 0.307 | 0.459 | 0.275 | 0.166 | 0.616 | 0.424 | 0.385 | 0.264 | 0.25 | 1.03 | 0.903 | 0.971 | 0.895 | 1.01 |
| NCI-H1651 | 0.508 | 0.351 | 0.423 | 0.374 | 0.538 | 0.742 | 0.723 | 0.868 | 0.677 | 0.63 | 0.629 | 0.507 | 0.558 | 0.585 | 0.473 | 1.01 | 0.832 | 0.746 | 0.919 | 0.835 |
| RERF-LC-KJ | 0.983 | 0.918 | 0.801 | 0.72 | 0.694 | 1.3 | 1.05 | 1.06 | 0.982 | 0.993 | 0.701 | 0.621 | 0.552 | 0.629 | 0.627 | 0.785 | 0.567 | 0.754 | 0.745 | 0.882 |
| NCI-H1755 | 0.526 | 0.425 | 0.418 | 0.459 | 0.428 | 0.522 | 0.301 | 0.375 | 0.303 | 0.16 | 0.682 | 0.641 | 0.602 | 0.509 | 0.323 | 0.931 | 0.965 | 0.909 | 0.807 | 0.818 |
| NCI-H1703 | – | – | – | – | – | – | – | – | – | – | – | – | – | – | – | 0.331 | 0.322 | 0.258 | 0.297 | 0.182 |
| NCI-H1650 | 0.268 | 0.367 | 0.318 | 0.282 | 0.296 | 0.228 | 0.199 | 0.236 | 0.177 | 0.187 | 0.462 | 0.255 | 0.475 | 0.318 | 0.314 | – | – | – | – | – |
| NCI-H522 | 0.81 | 0.891 | 0.94 | 0.821 | 0.792 | 1.16 | 0.913 | 1.08 | 0.775 | 0.923 | 0.745 | 0.767 | 0.671 | 0.655 | 0.61 | – | – | – | – | – |
| NCI-H1563 | 0.485 | 0.435 | 0.43 | 0.436 | 0.506 | 0.546 | 0.466 | 0.495 | 0.423 | 0.405 | – | – | – | – | – | 0.946 | 0.941 | 1.01 | 0.977 | 0.976 |
| SW 900 | 0.616 | 0.537 | 0.601 | 0.578 | 0.652 | 0.141 | 0.154 | 0.159 | 0.111 | 0.103 | 0.46 | 0.39 | 0.398 | 0.413 | 0.23 | – | – | – | – | – |
| NCI-H2228 | 0.753 | 0.586 | 0.59 | 0.384 | 0.532 | 0.158 | 0.095 | 0.145 | 0.0907 | 0.101 | – | – | – | – | – | 0.647 | 0.649 | 0.866 | 0.75 | 0.769 |
| NCI-H1623 | 0.533 | 0.52 | 0.467 | 0.526 | 0.585 | 0.414 | 0.401 | 0.49 | 0.412 | 0.319 | – | – | – | – | – | – | – | – | – | – |
| IA-LM | – | – | – | – | – | – | – | – | – | – | – | – | – | – | – | 0.768 | 0.523 | 0.653 | 0.321 | 0.112 |
| HCC-366 | 0.775 | 0.48 | 0.783 | 0.585 | 0.662 | – | – | – | – | – | 0.354 | 0.262 | 0.247 | 0.188 | 0.215 | 0.392 | 0.605 | 0.417 | 0.356 | 0.579 |
| HCC-78 | 0.565 | 0.321 | 0.36 | 0.347 | 0.351 | – | – | – | – | – | 0.615 | 0.608 | 0.599 | 0.429 | 0.326 | 0.275 | 0.309 | 0.351 | 0.325 | 0.337 |
| EBC-1 | – | – | – | – | – | – | – | – | – | – | – | – | – | – | – | 0.791 | 0.783 | 0.731 | 0.644 | 0.522 |
| NCI-H1299 | – | – | – | – | – | – | – | – | – | – | – | – | – | – | – | 1.08 | 0.974 | 1.11 | 1.17 | 0.968 |
